{"source": "patent US11998008B2", "about": "“Pesticides and methods of controlling pests” (The State of Israel, Ministry of Agriculture & Rural …, priority 2017, dated 2024)", "key": {"[1]": {"test_system": "Meloidogyne javanica J2s", "assay": "Greenhouse nematocidal experiment with susceptible tomato plants in inoculated loam", "type": "in vivo", "conditions": "30 ppm in soil, tomato harvested after 8 weeks", "method": "The activity of trans-2-octenal against nematodes was examined in a greenhouse experiment using stage 2 juveniles of the rot-knot nematode Meloidogyne javanica. […] After 2 days, the inoculated soil was treated with 30 ppm of trans-2-octenal and incubated for additional 5 days. Then, susceptible tomato plants were planted, and allowed to grow in a growing chamber for 8 weeks. At the end of the experiment, the plants, along with their root systems, were harvested from their pots and evaluated for incidence of root galling. In addition, M. javanica eggs were extracted from each root and counted, and the number of eggs per gram root was calculated. As shown in FIGS. 14A-14D, trans-2-octenal reduced the galling index and the number of eggs per gram root. […] The activity of 2-cyclohexen-1-one against nematodes was examined in a greenhouse experiment using stage 2 juveniles of the rot-knot nematode Meloidogyne javanica. The experiment was performed as described for trans-2-octenal. […] After 2 days, the inoculated soil was treated with 15 or 31 ppm of 2-cyclohexen-1-one and incubated for additional 5 days. Then, susceptible tomato plants were planted, and allowed to grow in a growing chamber for 8 weeks. At the end of the experiment, the plants, along with their root systems, were harvested from their pots and evaluated for incidence of root galling. In addition, M. javanica eggs were extracted from each root and counted, and the number of eggs per gram root was calculated."}, "[2]": {"test_system": "A. alternata", "assay": "Fungicidal activity assay on PDA in sealed Petri dish (growth inhibition and mortality)", "type": "cell-based, Alternaria alternata", "conditions": "Alternaria alternata, NA + number = still viable in the highest concentration tested (given as >), read-out: M - Mortality, minimal concentration that killed the fungus", "method": "In exemplary procedures, the fungicidial activity of the compounds listed in Table 2 were examined by activity assays as follow: Petri dishes, 90 mm in diameter, with air volume of 80 mL, contained 10-12 mL of growth medium comprising potato dextrose agar (PDA) (Acumedia, Lansing, Michigan, USA) amended with tetracycline at 12 μg/mL. Each compound was placed on a disconnected cover from an Eppendorf tube that was located in the middle of the Petri dish and a hyphae-containing plug of each test fungus was added to the culture plate. In exemplary procedures, the tested compounds trans-2-heptenal, trans-2-octenal were tested in comparison with octanal, trans-2-octen-1-ol, methyl trans-2-octenoate, trans-3-octen-2-one and 3-pentenenitrile. In addition, cyclic ketones as 2-cyclopenten-1-one, 2-cyclohexen-1-one and α-tetralone were also examined. Then, the culture plate was sealed with parafilm and incubated at room-temperature for 2 days, after which the growth of the test fungi in those dishes was compared with those in the test compound-free control dishes. At the end of the assay, the viability of each test fungus was evaluated by transferring inoculum plugs to fresh PDA plates and observing the growth that developed within the next 2 days. The test fungi used in this study included but were not limited to Alternaria alternata, Botrytis cinerea, Sclerotinia rolfsii, Penicillium digitatum, Fusarium oxysporum f. sp. radicis-cucumerinum and Rhizoctonia solani."}, "[3]": {"test_system": "lettuce seedling strain Raviv", "conditions": "in vivo, 11 days", "protocol": "An experiment in a larger scale was performed in loam soil in which the seedling were planted directly in the treated plot. The soil was treated with 0, 25, 50, 100, 200, 400, 800, and 1,600 ppm of emulsion of trans-2-octenal. The compound was applied using the irrigation system. A day later, tomato seedling strains Ikram and Abigail and lettuce seedling strain Raviv (10 seedlings each) were planted into the treated soil of each concentration. Eleven days later, the number of viable seedlings was counted."}, "[4]": {"test_system": "R. solani", "assay": "microbe, parasite or virus in culture", "type": "cell-based", "conditions": "Rhizoctonia solani; R. solani; NA + number = still viable in the highest concentration tested (given as >); read-out: M - Mortality, minimal concentration that killed the fungus"}, "[5]": {"test_system": "tomato strain Abigail", "assay": "Field phytotoxicity in loam soil, seedlings planted one day after application", "type": "in vivo", "conditions": "emulsion, viable seedlings counted eleven days after planting"}, "[6]": {"test_system": "seeds of corn, cotton, and peanut", "assay": "Phytotoxicity: seed germination in treated sandy soil in pots", "type": "in vivo", "conditions": "soil treated with 54 ppm, nine days", "method": "Sandy soil from a plot that was treated with 54 ppm of trans-2-octenal was removed to small pots in which either seeds of corn, cotton, and peanut were sown (FIGS. 16A-16C) or tomato seedlings were planted therein (FIG. 16E)."}, "[7]": {"test_system": "test fungi", "assay": "Fungicidal activity assay on PDA, summaries over the test fungi", "type": "cell-based", "conditions": "over the fungi tested"}, "[8]": {"test_system": "chlamydospores of Forl", "assay": "Open field experiment in sandy soil", "type": "in vivo, Fusarium oxysporum f sp. radicis-lycopersici", "conditions": "emulsion, 54 ppm active compound, 6 days", "method": "In this experiment, an emulsions of trans-2-octenal (25% active compound) such as those described in Example 9 were used. The soil was inoculated with chlamydospores of Forl and sclerotia of S. rolfsii. Five gram of soil, highly inoculated with chlamydospores were wrapped in nylon tights and buried in the field at depths of 10, 30, and 50 cm. Tea bags containing 50 S. rolfsii sclerotia were prepared as described above and buried similarly. After 6 days, trans-2-octenal emulsion, at concentration of 54 ppm (active compound) was applied using the irrigation system. The same conditions were applied to a control plot except that the plot was irrigated with tap water without the compound. The plots were left open during the time of the experiment. After 6 days, the pathogens were removed from the soil and their viability was examined using PDA+tet culture plates. […] As shown in these figures, elimination of both phytopathogenic fungi occurred at the lowest depth of 10 cm."}}, "data": [{"smiles": "CCCCC/C=C/C=O", "note": "[trans-2-octenal]", "values": [{"measurement": "galling index", "setting": "[1]", "result": "reduced"}, {"measurement": "number of eggs per gram root", "setting": "[1]", "result": "reduced"}, {"measurement": "MFC", "setting": "[2]", "result": 12.5, "unit": "µg/mL"}, {"measurement": "concentration at which significant phytotoxic effect occurred", "setting": "[3]", "result": 400, "unit": "ppm"}, {"measurement": "MFC", "setting": "[4]", "result": 6.25, "unit": "µg/mL"}, {"measurement": "concentration at which significant phytotoxic effect occurred", "setting": "[5]", "result": 400, "unit": "ppm"}, {"measurement": "number of seeds germinated in treated versus untreated soil", "setting": "[6]", "result": "did not differ significantly"}, {"measurement": "concentrations that completely inhibited the fungi growth and killed the fungi", "setting": "[7]", "result": "6.25-50 ppm"}, {"measurement": "viability of Forl chlamydospores", "setting": "[8]; 30 and 50 cm depth", "result": "No elimination"}, {"measurement": "viability of Forl chlamydospores", "setting": "[8]; depth 10 cm, open plot", "result": "elimination"}]}]}
